For two compounds, inhibition of phosphorylation results are on record in patent US20040014946A1, “Protein interaction method and composition” (priority 2002, published 2004).

The test system of the assay is AbI Protein Tyrosine Kinase. Description: On-chip phosphorylation inhibition screening assay (biofunction chip, MALDI MS). In kind it is biochemical. As to conditions: 250 nM substrate, 23° C. The procedure: FIG. 8 illustrates a biofunction chip with enzymatic functions. The reaction components consisted of 0.4U/well of AbI at pH 7.5, 0.1 mM ATP, and 400 nM substrate. 4 μl were added per well, and the reaction was incubated at 23° C. for 90 minutes. On-chip phosphorylation in rabbit reticulocyte extract with various substrate concentrations (0, 10, 30, 100, and 300 nM) is shown in FIG. 10. Reproducibility of the spectra in the same scale and in different scales normalized to the phosphorylated peaks are shown in FIG. 13. The percent phosphorylation is determined over time for 1 Unit of substrate per well versus 0.12 Unit substrate per well.
Screening assays for ATP analogs or substrate analogs capable of inhibiting phosphorylation were also tested. […] 250 nM substrate, 5 μM ATP, 20 U/well AbI TK, and 0, 4, 8, 12, 16, and 20 μM ATTP were incubated at 23° C. for 60 minutes. […] 250 nM substrate, 5 μM ATP, 20 U/well AbI TK, and 0, 5, 10, 15 and 40 μM Genistein were incubated at 23° C. for 60 minutes. […] 250 nM substrate, 100 μM ATP, 0.4 Units/well AbI TK, and 0, 1, 2, 4, 8, and 12 μM Erbstain were incubated at 23° C. for 60 minutes.
The components of biofunction chips are useful for kinase studies, histone acetylation, DNA methylation and protease studies. […]

In the case of `O=CN/C=C/c1cc(O)ccc1O` [Erbstain], under “100 μM ATP, 0.4 Units/well AbI TK, 0, 1, 2, 4, 8 and 12 μM Erbstain, 60 minutes (FIG. 16)”, the inhibition of phosphorylation entry is reported as “inhibition of phosphorylation”. For the compound `O=c1c(-c2ccc(O)cc2)coc2cc(O)cc(O)c12` [Genistein], for the setting “5 μM ATP, 20 U/well AbI TK, 0, 5, 10, 15 and 40 μM Genistein, 60 minutes (FIG. 15)”, the inhibition of phosphorylation result is given as “inhibition of phosphorylation”.
